Measurements from patent publication US9034336B2, “Immunomodulators and immunomodulator conjugates” (Regents of the University of Minnesota, priority 2011, dated 2015).

How the values were obtained:
[1] = target: T1, human TLR7 (Homo sapiens, UniProt Q9NYK1); assay: TLR7/8-NF-κB reporter assay (HEK-TLR7, SEAP); type: cell-based; conditions: HEK-TLR7 cells, 24 hrs, read-out: EC50 of TLR7 (mean ± SD)
T1 construct: host or cells: HEK (HEK293) cells with NF-kB-responsive SEAP reporter
T1 sequence (Q9NYK1 27-1049): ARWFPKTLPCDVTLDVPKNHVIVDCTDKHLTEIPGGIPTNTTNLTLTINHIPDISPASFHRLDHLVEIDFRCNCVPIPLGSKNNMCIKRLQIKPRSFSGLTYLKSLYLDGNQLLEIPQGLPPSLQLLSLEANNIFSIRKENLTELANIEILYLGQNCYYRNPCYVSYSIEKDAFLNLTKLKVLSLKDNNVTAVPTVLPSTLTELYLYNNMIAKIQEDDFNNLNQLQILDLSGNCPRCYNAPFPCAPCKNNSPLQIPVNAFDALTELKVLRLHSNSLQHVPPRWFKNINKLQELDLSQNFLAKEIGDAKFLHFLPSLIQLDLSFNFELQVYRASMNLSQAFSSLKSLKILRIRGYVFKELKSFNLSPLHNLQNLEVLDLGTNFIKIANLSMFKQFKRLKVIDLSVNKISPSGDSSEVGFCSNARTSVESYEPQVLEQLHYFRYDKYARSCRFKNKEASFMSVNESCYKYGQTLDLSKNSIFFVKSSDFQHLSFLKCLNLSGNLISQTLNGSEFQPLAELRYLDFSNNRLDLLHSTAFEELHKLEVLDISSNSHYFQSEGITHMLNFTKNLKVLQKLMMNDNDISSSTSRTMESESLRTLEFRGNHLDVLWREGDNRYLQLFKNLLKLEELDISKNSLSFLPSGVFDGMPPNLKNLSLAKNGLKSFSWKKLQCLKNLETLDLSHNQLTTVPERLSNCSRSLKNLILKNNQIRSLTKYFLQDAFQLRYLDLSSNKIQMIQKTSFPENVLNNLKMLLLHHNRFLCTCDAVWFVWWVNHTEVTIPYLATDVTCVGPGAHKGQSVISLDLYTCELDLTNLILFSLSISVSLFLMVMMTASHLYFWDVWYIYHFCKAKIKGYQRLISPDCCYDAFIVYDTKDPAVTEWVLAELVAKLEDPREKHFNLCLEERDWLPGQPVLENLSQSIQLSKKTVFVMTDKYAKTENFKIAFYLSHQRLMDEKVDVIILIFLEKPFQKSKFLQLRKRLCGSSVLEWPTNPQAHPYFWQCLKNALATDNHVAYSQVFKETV
Experimental: Human embryonic kidney (HEK) cells that were stably transfected with human TLR7 or TLR8 and an NF-κB—responsive secreted embryonic alkaline phosphatase (SEAP) gene (HEK-TLR7/8) were purchased from InvivoGen (San Diego, Calif.). The procedure used to measure TLR7 or TLR8 agonist activity was conducted as described by Hood et al. (Hood J. D, et al., Human Vaccines, 2010, 6, 4, 322-335). Briefly, HEK-TLR7/8 cells were stimulated with 3.3 or 30 μM of compound in a 96-well plate in DMEM containing 10% FBS and 0.01% Normocin (InvivoGen) for 24 hrs. Twenty microliters of the supernatant from each well was incubated with Quanti-blue substrate solution (InvivoGen) at 37° C. for 1 hour and absorbance was read at 650 nm using a Synergy plate reader (Biotek, Winooski, Vt.).

[2] = tested on: mouse splenocytes; assay: Inflammatory cytokine detection in splenocytes (CBA); type: cell-based, C57BL/6j mice
Experimental: Bone marrow cells were harvested from femurs and tibias of C57BL/6j. After red blood cells were removed with ammonium-chloride-potassium buffer, the bone marrow cells were cultured with complete RPMI-1640 medium and 2 ng/ml of granulocyte macrophage colony-stimulating factor (GM-CFS) at 5% CO2 and 37° C. for 6 days. Medium was changed twice during 6 days culture. Single cell suspension of splenocytes was prepared in the same way as one in IL-6 detection assay. BMDC or splenocytes were stimulated in triplicate with Imiquimod-derived new TLR ligand compounds, 412, 420, 421, 422, IMQ (414) and Resquimod (415) at various concentration of 20.8 nmol/ml, 5.2 nmol/ml, 1.3 nmol/ml, 0.325 nmol/ml and 0 nmol/ml. 48 hours after stimulation, the supernatants were harvested and frozen at −80° C. until detection. A cytometric bead array (CBA, BD Bioscience) was performed on inflammatory cytokines following the manufacture's instruction. 500 events were collected. Analysis of all samples was performed on FACScanto-II machine with software and further analyzed with Flowjo. Standard curves and negative control (PBS) were included for each cytokine to calculate the cytokine concentration in the samples.

EC50 [1]: 1.52 ± 0.07 µM
Structure (SMILES): CCCCc1nc2c(N)nc3cc(C(=O)OC)ccc3c2n1CC(C)(C)O [Compound 420, 4-Amino-2-butyl-1-(2-hydroxy-2-methylpropyl)-7-methoxycarbonyl-1H-imidazo[4,5-c]quinoline]
IL-10 (anti-inflammatory) secretion [2]: less IL-10 (anti-inflammatory) secretion compared to resiquimod
